According to patent publication US6239145A, “Nitroxyl compounds and drugs and reagents containing the same as the active ingredient” (Daiitchi Radioisotope Laboratories, Ltd., priority 1997, dated 2001):

How the values were obtained:
in vitro = in vitro ADME; details: carboxylesterase, 37° C., mean ± SD, n = 3, read-out: Hydrolysis Rate; for metabolised at 10 s: 10 sec., SD printed on next line: 0.43 (methyl ester), 11.9 (acetoxymethyl ester); for metabolised at 1 min: SD printed on next line: 0.34 (methyl ester), 3.4 (acetoxymethyl ester); for metabolised at 0.05 h: 3 min., 1.1 (acetoxymethyl ester); for metabolised at 0.05 h / metabolised at 5 min: SD: 0.49 (methyl ester); for metabolised at 5 min: 2.2 (acetoxymethyl ester); for metabolised at 10 min: SD printed on next line: 0.08 (methyl ester); for metabolised at 10 min / metabolised at 0.5 h: 0.0 (acetoxymethyl ester); for metabolised at 0.5 h: 30 min., SD printed on next line: 1.51 (methyl ester)
Method: (§1) Changes with time in the hydrolysis rate of 3-carboxy-PROXYL methyl ester and 3-carboxy-PROXYL acetoxymethyl ester by an esterase were examined.
(§2) 200 μl of a 10 mM test sample solution was mixed with 800 μl of 5 micro units of an esterase (carboxy esterase, carboxylic ester hydrolase; EC 3.1.1.1 manufactured by Sigma, catalogue No. E3128). The mixture was incubated at 37° C. for 10 seconds, 1 minute, 3 minutes, 5 minutes, 10 minutes, and 30 minutes, respectively. The mixture was then analyzed by HPLC to calculate the hydrolysis rate from the amount ratio of the unchanged product to 3-carboxy-PROXYL which is a hydrolysate thereof.
(§3) HPLC was performed using a UV-VIS detector (UV-8020), a dual pump (CCPS), a column (ODS-80Ts), and a TSK precolumn (BSA-ODS) all manufactured by Tosoh Corp.
(§4) Mobile phase: 20 mM phosphate buffer solution (pH 2.2)/methanol=60/40

mouse brain = format: in vivo; details: 2.5 μmol, vena caudalis
Method: . An L band ESR-CT image of the head axial transverse section was measured under the following conditions.
Measuring device: Electron spin resonance spectrometry
"JES-RE31" (manufactured by JEOL Ltd.)
Magnetic field gradient: 0.45 mT/cm
Projection: 18 (every 10°)
Magnetic field modulation: 100 kHz
Time constant: 0.003 second
Measurement temperature: room temperature

in vivo = details: mouse, iv
Method: (§5) The test was performed using sixteen groups of three mice each (ddY, female) as experimental animals as described below. 7.5 μmol of the test samples (2.5 μmol for 3-carboxy-PROXYL acetoxymethyl ester) were administered to the vena caudalis of the mice under ether, and allowed to stand for 3, 10, and 30 minutes, respectively. The mice were then dehematized quickly and the brain was removed. The brain was homogenized with a phosphate buffer solution in an amount nine times that of the removed brain. The blood was diluted with a phosphate buffer solution in an amount nine times thereof. A potassium ferricyanide solution was added to part of the tissue thus treated so that the final concentration was 1 mM. The test samples which had become hydroxylamines by the active oxygen and the like in vivo were converted to nitroxide radicals (one electron oxidation) to prepare ESR samples.
(§6) The concentration of the test samples after one electron oxidation was measured by x-band ESR and determined as the concentration of the samples in vivo. The test sample solution in an amount equal to that administered to the mice was prepared. This solution was treated in the same way, beginning from the addition of the nine-fold phosphate buffer solution. The concentration of the test sample was measured by x-band ESR and was determined as the total dosage. 15 mm of each sample taken into a 100 μl capillary (length 116.5 mm) was put into a quartz cell to measure the ESR spectrum under the following conditions.
(§7) Measuring device: Electron spin resonance spectrometry "JES-RE1X" (manufactured by JEOL Ltd.)
Magnetic field: 331.5±5 mT
Time constant: 0.03 second
(§8) The ratio of the test samples in the brain and blood to the total dosage (% dose), the value obtained by dividing the % dose by the weight of the brain and blood (% dose/g), and the ratio of the % dose/g of the brain, which was the target organ, to the % dose/g of the blood were calculated from the ESR spectrum.

[1] = Organ distribution in mice by X-band ESR; details: for Blood (% dose) / Brain (% dose): vena caudalis, 7.5 μmol (2.5 μmol for 3-carboxy-PROXYL acetoxymethyl ester)
Method: as §5, §6, §7
Magnetic field: 331.5±5 mT
Time constant: 0.03 second
as §8

[2] = system: esterase (carboxy esterase, carboxylic ester hydrolase; EC 3.1.1.1); assay: in vitro; format: in vitro ADME
Method: as §1, §2, §3, §4

## COC(=O)C1CC(C)(C)N([O])C1(C)C (centres unmarked) [3-carboxy-PROXYL methyl ester]
In vitro
  metabolised at 10 s: 0.05%
  metabolised at 1 min: 0.4%
  metabolised at 0.05 h: 0.8%
  metabolised at 5 min: 1.35%
  metabolised at 10 min: 2.54%
  metabolised at 0.5 h: 8.25%
Mouse brain
  L band ESR-CT: concentration inside the brain: highly concentrated inside the brain
  L band ESR-CT: concentration outside the brain: concentrated outside the brain
In vivo
  Kp at 10 min: 0.84 to 1.78
[1]; 3 min.
  Blood (% dose): 4.62 % dose
  Brain (% dose): 1.31 % dose
[1]; 10 min.
  Blood (% dose): 2.68 % dose
  Brain (% dose): 0.67 % dose
[1]; 30 min.
  Blood (% dose): 2.18 % dose
  Brain (% dose): 0.21 % dose

## CC(=O)OCOC(=O)C1CC(C)(C)N([O])C1(C)C (centres unmarked) [3-carboxy-PROXYL acetoxymethyl ester, acetoxymethyl-2,2,5,5-tetramethylpyrrolidinyloxy-3-carboxylate]
In vitro
  metabolised at 10 s: 30.1%
  metabolised at 1 min: 70.8%
  metabolised at 0.05 h: 93.9%
  metabolised at 5 min: 96.7%
  metabolised at 10 min: 100%
  metabolised at 0.5 h: 100%
[2]
  Speed of hydrolysis by esterase compared with methyl ester, in words: hydrolyzed by an esterase in a shorter period of time than 3-carboxy-PROXYL methyl ester
[2]; after 10 seconds
  Hydrolysis by esterase, in words: slightly hydrolyzed
Mouse brain
  L band ESR-CT: concentration inside the brain: still more highly concentrated inside the brain
  L band ESR-CT: concentration outside the brain: decreased accumulation outside the brain
In vivo
  Kp at 10 min: 3.14
  Kp at 0.5 h: 2.88
[1]; 3 min.
  Blood (% dose): 6.28 % dose
  Brain (% dose): 2.26 % dose
[1]; 10 min.
  Blood (% dose): 4.41 % dose
  Brain (% dose): 2.77 % dose
[1]; 30 min.
  Blood (% dose): 4.21 % dose
  Brain (% dose): 1.98 % dose

## CCOC(=O)C1CC(C)(C)N([O])C1(C)C (centres unmarked) [3-carboxy-PROXYL ethyl ester]
In vivo
  Kp at 10 min: 0.84 to 1.78
[1]; 3 min.
  Blood (% dose): 3.46 % dose
  Brain (% dose): 0.79 % dose
[1]; 10 min.
  Blood (% dose): 2.92 % dose
  Brain (% dose): 0.74 % dose
[1]; 30 min.
  Blood (% dose): 3.38 % dose
  Brain (% dose): 0.12 % dose

## 2-ethyl-2,5,5-trimethyloxazolidinyloxy
[1]; 3 min.
  Blood (% dose): 4.52 % dose
  Brain (% dose): 1.63 % dose
[1]; 10 min.
  Blood (% dose): 3.69 % dose
  Brain (% dose): 1.64 % dose
[1]; 30 min.
  Blood (% dose): 0.81 % dose
  Brain (% dose): 0.52 % dose
[1]; after 10 minutes
  brain to blood ratio (ratio of % dose/g of the brain to % dose/g of the blood): 0.84-1.78
